Active and inactive are the calls of the source.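 Rule for the calls: active = every repeat run shows inhibition with half-maximal dose at most twice the top dose tested; inconclusive = repeat runs disagree on the call; inactive = every repeat run inactive.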

The assay deals with Glycogen synthase kinase-3 beta (Homo sapiens) (UniProt P49841). The experiment in a line: human GSK3B enzyme activity inhibitors – biochemical, ADP-Glo luminescence, GST-GSK3beta, dry powder, selectivity assay for CDK5 tau phosphorylation inhibitor project, dose response (AID 602272). Conditions: recombinant GST-GSK3beta, 60 min; for activity change, negative = inhibition: at 30 µM (top of the series).
Chain of Glycogen synthase kinase-3 beta (Homo sapiens) (P49841 whole entry, looked up): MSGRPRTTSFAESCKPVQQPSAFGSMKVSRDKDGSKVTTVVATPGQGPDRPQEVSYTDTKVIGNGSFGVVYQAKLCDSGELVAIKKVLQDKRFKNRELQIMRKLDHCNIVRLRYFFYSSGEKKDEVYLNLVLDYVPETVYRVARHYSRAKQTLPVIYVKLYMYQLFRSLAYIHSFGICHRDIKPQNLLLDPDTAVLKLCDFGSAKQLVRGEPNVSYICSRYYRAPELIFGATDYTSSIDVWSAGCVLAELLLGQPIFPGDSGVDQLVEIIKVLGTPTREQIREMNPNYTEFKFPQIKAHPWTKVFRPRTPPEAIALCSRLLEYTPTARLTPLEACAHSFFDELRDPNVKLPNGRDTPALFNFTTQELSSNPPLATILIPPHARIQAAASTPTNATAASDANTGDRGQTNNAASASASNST

`O=C(c1ccccc1)N1CCN(c2ccccn2)CC1`: the “activity change, negative = inhibition” value was “inactive”. As for `COCCC(=O)N1CCN(c2ccccn2)CC1`, the “activity change, negative = inhibition” value is “inactive”. Consider `Cc1ccc(C(=O)N2CCN(c3ccccn3)CC2)cc1`, for which the “activity change, negative = inhibition” value is “inactive”. Still for that read-out and setting: under `O=C(C1CCCCC1)N1CCN(c2ccccn2)CC1` stands “inactive”; under `O=C(c1cccc(Cl)c1)N1CCN(c2ccccn2)CC1`, “inactive”; under `CCCn1c(NC(=O)c2cccc(S(=O)(=O)N(C)C)c2)nc2ccccc21`, “inactive”.

As for `CCCCC(=O)N1CCN(c2ccccn2)CC1`, the “activity change, negative = inhibition” value is “inactive”. The same measure, in the same setting: next, `CCCn1c(NC(=O)c2ccc(Cl)c(S(=O)(=O)N3CCCC3)c2)nc2ccccc21`: “inactive”; `c1ccc(N2CCNCC2)nc1`: “inactive”; `COc1cc(C(=O)N2CCN(c3ccccc3)CC2)cc(OC)c1OC`: “inactive”. In the case of `CCOc1cc(C(=O)N2CCN(c3ccccn3)CC2)cc(OCC)c1OCC`, the “activity change, negative = inhibition” value was “inactive”. Take `CCn1c(NC(=O)c2cccc(S(=O)(=O)NC)c2)nc2ccccc21`: the “activity change, negative = inhibition” value was “inactive”.

On to `CCCn1c(NC(=O)c2cccc(S(=O)(=O)N(CC)CC)c2)nc2ccccc21`, for which the “activity change, negative = inhibition” value is “inactive”. As for `O=C(c1ccc(F)cc1)N1CCN(c2ccccn2)CC1`, the “activity change, negative = inhibition” value is “inactive”. The same measure, in the same setting: next, `Cc1ccnc(N2CCN(C(=O)c3ccc(Cl)cc3)CC2)c1`: “inactive”. For `N#Cc1ccc(C(=O)N2CCN(c3ccccn3)CC2)cc1`, the “activity change, negative = inhibition” value is “inactive”.

`O=C(c1ccccc1Cl)N1CCN(c2ccccn2)CC1`: the “activity change, negative = inhibition” value was “inactive”. On the same count and under the same terms, under `CC(C)C(=O)N1CCN(c2ccccn2)CC1` stands “inactive”. For `COc1ccnc(N2CCN(C(=O)c3ccc(Cl)cc3)CC2)c1`, the “activity change, negative = inhibition” value was “inactive”. As to `Cc1ccc(N2CCN(C(=O)c3ccc(Cl)cc3)CC2)nc1`, the “activity change, negative = inhibition” value was “inactive”. As to `O=C(c1ccc(Cl)cc1)N1CCN(c2ccccn2)CC1`, the “activity change, negative = inhibition” value was “inactive”. Regarding `O=C(c1ccc(Cl)cc1)N1CCN(c2ccc(C(F)(F)F)cn2)CC1`, the “activity change, negative = inhibition” value was “inactive”. As to `Cc1cccc(N2CCN(C(=O)c3ccc(Cl)cc3)CC2)n1`, the “activity change, negative = inhibition” value was “inactive”. Consider `CCCn1c(NC(=O)c2cccc(S(=O)(=O)N3CCCCC3)c2)nc2ccccc21`, for which the “activity change, negative = inhibition” value was “inactive”.

As for `N#Cc1cccnc1N1CCN(C(=O)c2ccc(Cl)cc2)CC1`, the “activity change, negative = inhibition” value was “inactive”. On the same count and under the same terms, under `COc1cccc(C(=O)N2CCN(c3ccccn3)CC2)c1` stands “inactive”. With `COc1cc(C(=O)N2CCN(c3ccccn3)CC2)cc(OC)c1OC`, the “activity change, negative = inhibition” value was “inactive”. Consider `O=C(c1ccc(Cl)cc1)N1CCN(c2ncccc2C(F)(F)F)CC1`, for which the “activity change, negative = inhibition” value was “inactive”. The same measure, in the same setting: next, `O=C(c1ccc(Cl)cc1)N1CCN(c2cccc(C(F)(F)F)n2)CC1`: “inactive”. For the molecule `CC(C)(C)n1c(NC(=O)c2cccc(S(C)(=O)=O)c2)nc2ccccc21`, the AC50 was 18.9 µM. `CCCn1c(NC(=O)c2ccc(OC)c(S(=O)(=O)N3CCCC3)c2)nc2ccccc21`: the “activity change, negative = inhibition” value was “inactive”.

As to `COc1ccc(C(=O)N2CCN(c3ccccn3)CC2)cc1`, the “activity change, negative = inhibition” value is “inactive”. As to `COc1cccnc1N1CCN(C(=O)c2ccc(Cl)cc2)CC1`, the “activity change, negative = inhibition” value is “inactive”. As for `N#Cc1ccc(N2CCN(C(=O)c3ccc(Cl)cc3)CC2)nc1`, the “activity change, negative = inhibition” value is “inactive”.

What is called AC50 is the midpoint of the concentration-response curve, whichever way the signal moves.

(Values after PubChem BioAssay AID602272 (Broad Institute, 2012).)
